Tested on: NL-RLuc virus (HIV)
Test: Inhibition of HIV replication (NL-RLuc luciferase reporter virus in MT-2 cells)
Assay type: cell-based
Settings: Human immunodeficiency virus 1, MT2, 120 h
From the text: Inhibition of HIV Replication
A recombinant NL-RLuc proviral clone was constructed in which a section of the nef gene from NL4-3 was replaced with the Renilla Luciferase gene. This virus is fully infectious and can undergo multiple cycles of replication in cell culture. In addition, the luciferous reporter provides a simple and easy method for quantitating the extent of virus growth and consequently, the antiviral activity of test compounds. The plasmid pNLRLuc contains the proviral NL-Rluc DNA cloned into pUC18 at the PvuII site. The NL-RLuc virus was prepared by transfection of 293T cells with the plasmid pNLRLuc. Transfections were performed using the LipofectAMINE PLUS kit from Invitrogen (Carlsbad, Calif.) according to the manufacturer and the virus generated was titered in MT-2 cells. For susceptibility analyses, the titrated virus was used to infect MT-2 cells in the presence of compound, and after 5 days of incubation, cells were processed and quantitated for virus growth by the amount of expressed luciferase. Assay media was RPMI 1640 supplemented with 10% heat inactivated fetal bovine serum (FBS), 100 units/ml penicillin G/100 units/ml streptomycin, 10 mM HEPES buffer pH 7.55 and 2 mM L-glutamine. The results from at least 2 experiments were used to calculate the EC50 values. Luciferase was quantitated using the Dual Luciferase kit from Promega (Madison, Wis.). Susceptibility of viruses to compounds was determined by incubation in the presence of serial dilutions of the compound. The 50% effective concentration (EC50) was calculated by using the exponential form of the median effect equation where (Fa)=1/[1+(ED50/drug conc.)^m] (Johnson V A, Byington R T. Infectivity Assay. In Techniques in HIV Research. ed. Aldovini A, Walker B D. 71-76. New York: Stockton Press. 1990).

Row | SMILES | EC50 [nM]
1 | Cc1nc(CO)c(-c2ccc3c(c2)CCC(c2ccc(F)cc2)O3)c(N2CCC(C)(C)CC2)c1[C@H](OC(C)(C)C)C(=O)O (stereo partly drawn) [Example 43, (2S)-2-tert-Butoxy-2-(4-(4,4-dimethylpiperidin-1-yl)-5-(2-(4-fluorophenyl)chroman-6-yl)-6-(hydroxymethyl)-2-methylpyridin-3-yl)acetic acid] | 7
2 | COc1ccc(S(=O)(=O)N2Cc3ccc(-c4c(C)nc(C)c([C@H](OC(C)(C)C)C(=O)O)c4N4CCC(C)(C)CC4)cc3C2)cc1 [Example 24, (S)-2-(tert-butoxy)-2-(4-(4,4-dimethylpiperidin-1-yl)-5-(2-((4-methoxyphenyl)sulfonyl)isoindolin-5-yl)-2,6-dimethylpyridin-3-yl)acetic acid] | 10
3 | Cc1nc(C)c([C@H](OC(C)(C)C)C(=O)O)c(N2CCC(C)(C)CC2)c1-c1ccc2c(c1)CCN(Cc1ccc(F)cc1)C2=O [Example 14, (S)-2-(tert-butoxy)-2-(4-(4,4-dimethylpiperidin-1-yl)-5-(2-(4-fluorobenzyl)-1-oxo-1,2,3,4-tetrahydroisoquinolin-6-yl)-2,6-dimethylpyridin-3-yl)acetic acid] | 6
4 | Cc1nc(C)c([C@H](OC(C)(C)C)C(=O)O)c(N2CCC(C)(C)CC2)c1-c1ccc2c(c1)CC[C@H](Cc1ccc(F)cc1)O2 [Example 35, (S)-2-tert-Butoxy-2-(4-(4,4-dimethylpiperidin-1-yl)-5-((R)-2-(4-fluorobenzyl)chroman-6-yl)-2,6-dimethylpyridin-3-yl)acetic acid] | 3
5 | Cc1nc(CO)c(-c2ccc3c(c2)CC[C@@H](Cc2ccc(F)cc2)O3)c(N2CCC(C)(C)CC2)c1[C@H](OC(C)(C)C)C(=O)O [Example 36, (S)-2-(tert-Butoxy)-2-(4-(4,4-dimethylpiperidin-1-yl)-5-((S)-2-(4-fluorobenzyl)chroman-6-yl)-6-(hydroxymethyl)-2-methylpyridin-3-yl)acetic acid] | 2
6 | Cc1nc(C)c([C@H](OC(C)(C)C)C(=O)O)c(N2CCC(C)(C)CC2)c1-c1ccc2ccncc2c1 [Example 1, (S)-2-(tert-Butoxy)-2-(4-(4,4-dimethylpiperidin-1-yl)-5-(isoquinolin-7-yl)-2,6-dimethylpyridin-3-yl)acetic acid] | 47
7 | Cc1nc(C)c([C@H](OC(C)(C)C)C(=O)O)c(N2CCC(C)(C)CC2)c1-c1ccc2c(c1)CCC(c1ccc(F)cc1)O2 (stereo partly drawn) [Example 42, (2S)-2-tert-Butoxy-2-(4-(4,4-dimethylpiperidin-1-yl)-5-(2-(4-fluorophenyl)chroman-6-yl)-2,6-dimethylpyridin-3-yl)acetic acid] | 7
8 | Cc1nc(C)c([C@H](OC(C)(C)C)C(=O)O)c(N2CCC(C)(C)CC2)c1-c1ccc2c(c1)CN(Cc1ccc(F)cc1)C2 [Example 21, (S)-2-(tert-butoxy)-2-(4-(4,4-dimethylpiperidin-1-yl)-5-(2-(4-fluorobenzyl)isoindolin-5-yl)-2,6-dimethylpyridin-3-yl)acetic acid] | 30
9 | Cc1nc(C)c([C@H](OC(C)(C)C)C(=O)O)c(N2CCC(C)(C)CC2)c1-c1ccc2c(c1)CCC(COc1cccc(F)c1F)O2 (stereo partly drawn) [Example 41, (2S)-2-tert-Butoxy-2-(5-(2-((2,3-difluorophenoxy)methyl)chroman-6-yl)-4-(4,4-dimethylpiperidin-1-yl)-2,6-dimethylpyridin-3-yl)acetic acid] | 3
10 | Cc1nc(C)c([C@H](OC(C)(C)C)C(=O)O)c(N2CCC(C)(C)CC2)c1-c1ccc2c(c1)CN(C(=O)c1ccc(F)cc1)C2 [Example 22, (S)-2-(tert-butoxy)-2-(4-(4,4-dimethylpiperidin-1-yl)-5-(2-(4-fluorobenzoyl)isoindolin-5-yl)-2,6-dimethylpyridin-3-yl)acetic acid] | 53
11 | Cc1nc(C)c([C@H](OC(C)(C)C)C(=O)O)c(N2CCC(C)(C)CC2)c1-c1ccc2[nH]c(=O)cc(OCc3ccc(F)cc3)c2c1 [Example 18, (S)-2-(tert-butoxy)-2-(4-(4,4-dimethylpiperidin-1-yl)-5-(4-((4-fluorobenzyl)oxy)-2-oxo-1,2-dihydroquinolin-6-yl)-2,6-dimethylpyridin-3-yl)acetic acid] | 504
12 | Cc1cccc(C2CCc3cc(-c4c(CO)nc(C)c([C@H](OC(C)(C)C)C(=O)O)c4N4CCC(C)(C)CC4)ccc3O2)n1 (stereo partly drawn) [Example 45, (2S)-2-tert-Butoxy-2-(4-(4,4-dimethylpiperidin-1-yl)-6-(hydroxymethyl)-2-methyl-5-(2-(6-methylpyridin-2-yl)chroman-6-yl)pyridin-3-yl)acetic acid] | 7
13 | Cc1nc(C)c([C@H](OC(C)(C)C)C(=O)O)c(N2CCC(C)(C)CC2)c1-c1ccc2c(c1)CC[C@@H](Cc1ccc(F)cc1)O2 [Example 34, (S)-2-tert-Butoxy-2-(4-(4,4-dimethylpiperidin-1-yl)-5-((S)-2-(4-fluorobenzyl)chroman-6-yl)-2,6-dimethylpyridin-3-yl)acetic acid] | 2
14 | Cc1nc(C)c([C@H](OC(C)(C)C)C(=O)O)c(N2CCC(C)(C)CC2)c1-c1ccc2c(c1)CCN(Cc1nccs1)C2=O [Example 15, (S)-2-(tert-butoxy)-2-(4-(4,4-dimethylpiperidin-1-yl)-2,6-dimethyl-5-(1-oxo-2-(thiazol-2-ylmethyl)-1,2,3,4-tetrahydroisoquinolin-6-yl)pyridin-3-yl)acetic acid] | 14
15 | Cc1cccc(C2CCc3cc(-c4c(C)nc(C)c([C@H](OC(C)(C)C)C(=O)O)c4N4CCC(C)(C)CC4)ccc3O2)n1 (stereo partly drawn) [Example 44, (2S)-2-tert-Butoxy-2-(4-(4,4-dimethylpiperidin-1-yl)-2,6-dimethyl-5-(2-(6-methylpyridin-2-yl)chroman-6-yl)pyridin-3-yl)acetic acid] | 8
16 | Cc1nc(C)c([C@H](OC(C)(C)C)C(=O)O)c(N2CCC(C)(C)CC2)c1-c1ccc2c(c1)CCC(Cc1ccc(F)cc1)C2 (stereo partly drawn) [Example 26, (2S)-2-(tert-Butoxy)-2-(4-(4,4-dimethylpiperidin-1-yl)-5-(6-(4-fluorobenzyl)-5,6,7,8-tetrahydronaphthalen-2-yl)-2,6-dimethylpyridin-3-yl)acetic acid] | 10
17 | Cc1nc(C)c([C@H](OC(C)(C)C)C(=O)O)c(N2CCC(C)(C)CC2)c1-c1ccc2c(c1)CNC2=O [Example 11, (S)-2-(tert-butoxy)-2-(4-(4,4-dimethylpiperidin-1-yl)-2,6-dimethyl-5-(1-oxoisoindolin-5-yl)pyridin-3-yl)acetic acid] | 1680
18 | Cc1nc(C)c([C@H](OC(C)(C)C)C(=O)O)c(N2CCC(C)(C)CC2)c1-c1ccc2c(c1)CC[C@@H](Cc1ccccc1)O2 [Example 32, (S)-2-(5-((S)-2-Benzylchroman-6-yl)-4-(4,4-dimethylpiperidin-1-yl)-2,6-dimethylpyridin-3-yl)-2-tert-butoxyacetic acid] | 2
19 | Cc1nc(C)c([C@H](OC(C)(C)C)C(=O)O)c(N2CCC(C)(C)CC2)c1-c1ccc2c(c1)CCNC2=O [Example 10, (S)-2-(tert-butoxy)-2-(4-(4,4-dimethylpiperidin-1-yl)-2,6-dimethyl-5-(1-oxo-1,2,3,4-tetrahydroisoquinolin-6-yl)pyridin-3-yl)acetic acid] | 307
20 | Cc1nc(C)c([C@H](OC(C)(C)C)C(=O)O)c(N2CCC(C)(C)CC2)c1-c1ccc2c(c1)CC[C@H](Cc1ccc(F)c(F)c1)O2 [Example 29, (S)-2-tert-Butoxy-2-(5-((R)-2-(3,4-difluorobenzyl)chroman-6-yl)-4-(4,4-dimethylpiperidin-1-yl)-2,6-dimethylpyridin-3-yl)acetic acid] | 5
21 | Cc1nc(C)c([C@H](OC(C)(C)C)C(=O)O)c(N2CCC(C)(C)CC2)c1-c1ccc2[nH]c(=O)[nH]c2c1 [Example 8, (S)-2-(tert-butoxy)-2-(4-(4,4-dimethylpiperidin-1-yl)-2,6-dimethyl-5-(2-oxo-2,3-dihydro-1H-benzo[d]imidazol-5-yl)pyridin-3-yl)acetic acid] | 7060
22 | Cc1nc(C)c([C@H](OC(C)(C)C)C(=O)O)c(N2CCC(C)(C)CC2)c1-c1ccc2[nH]c(=O)cc(O)c2c1 [Example 12, (S)-2-(tert-butoxy)-2-(4-(4,4-dimethylpiperidin-1-yl)-5-(4-hydroxy-2-oxo-1,2-dihydroquinolin-6-yl)-2,6-dimethylpyridin-3-yl)acetic acid] | 4960
23 | Cc1nc(C)c([C@H](OC(C)(C)C)C(=O)O)c(N2CCC(C)(C)CC2)c1-c1ccc2c(c1)CC[C@@H](Cc1ccc(F)c(F)c1)O2 [Example 28, (S)-2-tert-Butoxy-2-(5-((S)-2-(3,4-difluorobenzyl)chroman-6-yl)-4-(4,4-dimethylpiperidin-1-yl)-2,6-dimethylpyridin-3-yl)acetic acid] | 2
24 | Cc1nc(C)c([C@H](OC(C)(C)C)C(=O)O)c(N2CCC(C)(C)CC2)c1-c1ccc2c(c1)CCC(Oc1ccc(F)cc1)C2 (stereo partly drawn) [Example 27, (2S)-2-(tert-Butoxy)-2-(4-(4,4-dimethylpiperidin-1-yl)-5-(6-(4-fluorophenoxy)-5,6,7,8-tetrahydronaphthalen-2-yl)-2,6-dimethylpyridin-3-yl)acetic acid] | 6

Source: US10407410B2, “Pyridin-3-yl acetic acid derivatives as inhibitors of human immunodeficiency virus replication” (priority 2016, dated 2019)
